For three molecules, IC50 results are on record in publication doi:10.1101/2021.06.10.447852v1 (biorxiv, 2021).

For the test, the system named is EZH2 (methyltransferase component of PRC2). Kind of test: cells. Particulars: Homo sapiens, HEK-293T, 48 h, read-out: Cell IC50 (H3K27me3) (nM).

By IC50 is commonly meant the concentration needed to halve the response being measured. In the case of `CSc1cc(C)[nH]c(=O)c1CN1CCN(C)c2c(Cl)cc(-c3c(C)noc3C)c(Cl)c2C1=O` [compound 21, TDI-11904], the IC50 amounted to 6 nM.

With `CSc1cc(C)n(C)c(=O)c1CN1CCN(C)c2c(Cl)cc(-c3c(C)noc3C)c(Cl)c2C1=O` [compound 22, 22], the IC50 amounted to 1550 nM.

As for `CSc1cc(C)n(C)c(=O)c1CN1CCNc2c(Cl)cc(-c3c(C)noc3C)c(Cl)c2C1=O` [compound 23, 23], the IC50 worked out at 167 nM.
